Assay results from the supplement of paper PMC10307832.

Tests used:
Test in all cases: relative viability (nuclei count vs DMSO), 5 days (fraction); higher = more cells survive
[1] = system: A549
Outline: (§1)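 Relative viability was taken as the ratio of nuclei in treated wells to nuclei in vehicle wells. Lung cancer cell lines in 1536-well plates received compounds by pin tool one day after seeding, either one drug alone or a fixed anchor-drug dose plus five library-drug doses (not always all listed) in √10 steps. Nuclei were counted on 4× images after 5 days of treatment, and values are medians of duplicate plates.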

[2] = system: Calu-6
Outline: as §1

[3] = system: EBC-1
Outline: as §1

[4] = system: HCC-78
Outline: as §1

[5] = system: IA-LM
Outline: as §1

[6] = system: NCI-H1299
Outline: as §1

[7] = system: NCI-H1703
Outline: as §1

[8] = system: NCI-H2009
Outline: as §1

[9] = system: NCI-H358
Outline: as §1

[10] = system: NCI-H460
Outline: as §1

[11] = system: NCI-H661
Outline: as §1

COc1cc2nccc(Oc3ccc(NC(=O)Nc4cc(C)on4)c(Cl)c3)c2cc1OC [Tivozanib] + CS(=O)(=O)CCNCc1ccc(-c2ccc3ncnc(Nc4ccc(OCc5cccc(F)c5)c(Cl)c4)c3c2)o1 [Lapatinib] (partner 2 µM)
relative viability ([1]; first compound 0.005 µM): 1.09
relative viability ([1]; first compound 0.01581 µM): 0.987
relative viability ([1]; first compound 0.05 µM): 0.944
relative viability ([1]; first compound 0.1581 µM): 1.03
relative viability ([1]; first compound 0.5 µM): 0.913
relative viability ([2]; first compound 0.005 µM): 1.01
relative viability ([2]; first compound 0.01581 µM): 1.08
relative viability ([2]; first compound 0.05 µM): 1.07
relative viability ([2]; first compound 0.1581 µM): 1.13
relative viability ([2]; first compound 0.5 µM): 1.14
relative viability ([3]; first compound 0.005 µM): 0.231
relative viability ([3]; first compound 0.01581 µM): 0.216
relative viability ([3]; first compound 0.05 µM): 0.172
relative viability ([3]; first compound 0.1581 µM): 0.209
relative viability ([3]; first compound 0.5 µM): 0.204
relative viability ([4]; first compound 0.005 µM): 0.683
relative viability ([4]; first compound 0.01581 µM): 0.772
relative viability ([4]; first compound 0.05 µM): 0.851
relative viability ([4]; first compound 0.1581 µM): 1.58
relative viability ([4]; first compound 0.5 µM): 0.455
relative viability ([5]; first compound 0.01581 µM): 0.564
relative viability ([5]; first compound 0.05 µM): 0.771
relative viability ([5]; first compound 0.1581 µM): 0.582
relative viability ([5]; first compound 0.5 µM): 0.56
relative viability ([6]; first compound 0.005 µM): 0.921
relative viability ([6]; first compound 0.01581 µM): 1.03
relative viability ([6]; first compound 0.05 µM): 0.933
relative viability ([6]; first compound 0.1581 µM): 0.936
relative viability ([6]; first compound 0.5 µM): 0.917
relative viability ([7]; first compound 0.005 µM): 0.44
relative viability ([7]; first compound 0.01581 µM): 0.255
relative viability ([7]; first compound 0.05 µM): 0.271
relative viability ([7]; first compound 0.1581 µM): 0.305
relative viability ([7]; first compound 0.5 µM): 0.259
relative viability ([8]; first compound 0.005 µM): 0.88
relative viability ([8]; first compound 0.01581 µM): 1.1
relative viability ([8]; first compound 0.05 µM): 0.937
relative viability ([8]; first compound 0.1581 µM): 0.896
relative viability ([8]; first compound 0.5 µM): 0.909
relative viability ([9]; first compound 0.005 µM): 0.476
relative viability ([9]; first compound 0.01581 µM): 0.563
relative viability ([9]; first compound 0.05 µM): 0.479
relative viability ([9]; first compound 0.1581 µM): 0.435
relative viability ([9]; first compound 0.5 µM): 0.499
relative viability ([10]; first compound 0.005 µM): 0.889
relative viability ([10]; first compound 0.01581 µM): 1
relative viability ([10]; first compound 0.05 µM): 0.979
relative viability ([10]; first compound 0.1581 µM): 1.12
relative viability ([10]; first compound 0.5 µM): 0.948
relative viability ([11]; first compound 0.005 µM): 0.436
relative viability ([11]; first compound 0.01581 µM): 0.495
relative viability ([11]; first compound 0.05 µM): 0.46
relative viability ([11]; first compound 0.1581 µM): 0.496
relative viability ([11]; first compound 0.5 µM): 0.553
